# Data published in US11370798B2 (Vertex Pharmaceuticals Incorporated, priority 2012, dated 2022).
# Test system: HCT116 colorectal cancer cells
# Experiment: Cisplatin sensitization assay (96 h cell viability MTS);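 note: Test-compound concentration that lowers the Cisplatin IC50 by a set fold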
# Format: cell-based
# Conditions: compound and Cisplatin added simultaneously, Cisplatin sensitization value
# How it was run: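 Compound and cisplatin added together as a full matrix of 2-fold serial dilutions from a top final concentration of 10 μM; cells incubated 96 h at 37° C, 5% CO2. Viability then read by MTS after 1 h further incubation; sensitization value reported in μM bins.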
row,SMILES,Cisplatin Sensitization Assay
1,"CN1CCC(Oc2c(F)cncc2NC(=O)c2c(N)nn3cc(F)cnc23)CC1 [I-O-89, 2-amino-6-fluoro-N-(5-fluoro-4-((1-methylpiperidin-4-yl)oxy)pyridin-3-yl)pyrazolo[1,5-a]pyrimidine-3-carboxamide]",++ (Cisplatin sensitization value>0.02 μM but <0.2 μM)
2,"CNc1cc(OC)c(NC(=O)c2c(N)nn3cc(F)cnc23)cn1 [I-O-90, 2-amino-6-fluoro-N-(4-methoxy-6-(methylamino)pyridin-3-yl)pyrazolo[1,5-a]pyrimidine-3-carboxamide]",+ (Cisplatin sensitization value>0.2 μM but <5 μM)
3,"Nc1nn2cc(F)cnc2c1C(=O)Nc1cncc(F)c1OC1CCN(C2COC2)CC1 [I-O-91, 2-amino-6-fluoro-N-(5-fluoro-4-((1-(oxetan-3-yl)piperidin-4-yl)oxy)pyridin-3-yl)pyrazolo[1,5-a]pyrimidine-3-carboxamide]",++ (Cisplatin sensitization value>0.02 μM but <0.2 μM)
4,"Nc1nn2cc(F)cnc2c1C(=O)Nc1cnccc1OC1COC1 [I-O-92, 2-amino-6-fluoro-N-(4-(oxetan-3-yloxy)pyridin-3-yl)pyrazolo[1,5-a]pyrimidine-3-carboxamide]",+++ (Cisplatin sensitization value of <0.02 μM)
